# Test results published in patent US20050234113A1, “Antioxidant and radical scavenging activity of synthetic analogs of desferrithiocin” (University of Florida Research Foundation, Inc., priority 2002, published 2005).
# “And” between values parts separate entries of the source, which are not always exact repeats. Equal values may be shown once. “Also recorded” adds a separate entry of the source.
# How the values were obtained:
# [1] = Prevention of iron-mediated oxidation of ascorbate (ascorbate-mediated reduction of Fe(III)); settings: ascorbate 100 μM, FeCl3 30 μM, pH 7.4, ligand/Fe ratios 0-3, 40 min
# Protocol: (§1) The iron chelators were tested for their ability to diminish the iron-mediated oxidation of ascorbate by the method of Dean and Nicholson (Free Radical Res. 20, 83-101 (1994)). Briefly, a solution of freshly prepared ascorbate (100 μM) in sodium phosphate buffer (5 mM, pH 7.4) was incubated in the presence of FeCl3 (30 μM) and chelator (ligand/Fe ratios varied from 0-3) for 40 min. The A265 was read at 10 and 40 min; the ΔA265 in the presence of ligand was compared to that in its absence.
# The role of chelators in either inhibition or promotion of the Fenton reaction is related to their capacity to prevent Fe(III) from being reduced to Fe(II). Fe(II) is required for the reduction of H2O2 to HO. and HO^−. The assay involves spectrophotometrically monitoring the disappearance of ascorbate at pH 7.4 in the presence of FeCl3 and chelator at several ligand/Fe ratios. Under these conditions, ascorbate is oxidized to an L-ascorbyl radical anion. This anion then disproportionates to dehydroascorbic acid and ascorbate.
# as §1, with “chelators nitrilotriacetic acid (NTA), 1,2-dimethyl-3-hydroxypyridin-4-one (L1), desferrioxamine B (DFO), (S)-4′-(HO)-DADMDFT, and (S,S)-1,11-Bis[5-(4-carboxyl-4,5-dihydro-1,3-thiazol-2-yl)-2,4-dihydroxyphenyl]-4,8-dioxaundecane (BDU)” for “chelators”, “Nicholson, Free” for “Nicholson (Free”, “20:” for “20,”, “(1994).” for “(1994)).”
# The measurement examines the disappearance of ascorbate. It is known that DFO, a hydroxamate chelator that forms a 1:1 complex with Fe(III) at a formation constant of approximately 10^31 M^−1, prevents ascorbate-mediated reduction of Fe(III); it serves as a positive control in the present study. Both NTA and L1 promote ascorbate-mediated reduction of Fe(III) and serve as negative controls.
# iron [2] = assay: Iron clearance in the non iron-overloaded, bile duct-cannulated rodent model; type: in vivo, Sprague-Dawley rats
# Protocol: Briefly, male Sprague-Dawley rats averaging 450 g were housed in Nalgene plastic metabolic cages during the experimental period and given free access to water. The animals were anesthetized using sodium pentobarbital (55 mg/kg) administered intraperitoneally. The bile duct was cannulated using 22-gauge polyethylene tubing. The cannula was inserted into the duct about 1 cm from the duodenum and tied snugly in place. After threading through the shoulder, the cannula was passed from the rat to the swivel inside a metal torque-transmitting tether, which was attached to a rodent jacket around the animal's chest. The cannula was directed from the rat to a Gilson microfraction collector (Middleton, Wis.) by a fluid swivel mounted above the metabolic cage. Bile samples were collected at 3 hour intervals for 24 hours. The urine sample was taken at 24 hours and handling was as previously described. (Bergeron, R. J., et al., J. Med. Chem. 34:2072-2078 (1991).
# (§2) The iron chelators were solubilized in 40% Cremophor RH-40/water (v/v) and given orally and subcutaneously to the rats at the doses shown in Table 4. In the primates, DFO was dissolved in sterile H2O at a concentration of 50 or 100 mg/mL and given orally or subcutaneously at a volume of 1 ml/kg. The desferrithiocin analogues were solubilized in 40% Cremophor RH-40/water (v/v) and given orally to the monkeys at the doses shown in Table 4. However, the desferrithiocin analogues were administered subcutaneously as either a suspension in distilled H2O or as their sodium salts in solution as indicated in Table 4.
# (§3) Iron clearance studies were carried out both in the non iron-overloaded, bile duct-cannulated rodent model and in the iron-overloaded Cebus apella monkey, and the results are reported as iron clearing efficiency (Table 4). This number is generated by dividing the net iron clearance [total iron excretion (bile or stool plus urine) minus background] by the theoretical iron clearance and multiplying by 100. The theoretical iron clearance is based on a 2:1 metal complex stoichiometry for 4′-(HO)-DADMDFT, a 1:1 stoichiometry for DFO, and a 1:1 stoichiometry for BDU, as shown in the Job's plot (FIG. 5). Data are presented as the mean±the standard error of the mean. The drugs were administered both orally (po) and subcutaneously (sc) to the rodents and primates; the positive control was DFO.
# [3] = Quenching of the ABTS radical cation
# Protocol: The iron chelators were tested for their ability to quench the radical cation formed from 2,2′-azinobis(3-ethylbenzothiazoline-6-sulfonic acid) (ABTS) by the method of Re et al. in Free Radic. Biol. Med. 26, 1231-1237 (1999). Briefly, a stock solution of ABTS radical cation was generated by mixing ABTS (10 mM, 2.10 mL) with K2S2O8 (8.17 mM, 0.90 mL) in H2O and […] deep blue-green ABTS radical cation was diluted in sufficient sodium phosphate (10 mM, pH 7.4) to give an A734 of about 0.900. Test compounds were added to a final concentration ranging from 1.25 to 15 μM, and the decrease in A734 was read after 1, 2, 4 and 6 min. The reaction was largely complete by 1 min, but the data presented are based on a 6-min reaction time.
# In this assay, a fairly stable radical cation, ABTS^+, was examined, and Trolox, an analog of vitamin E, was used as a positive control. Briefly, the procedure involved generating the blue-green chromophore by the reaction of ABTS with K2S2O8. The radical has absorption maxima at λ=415, 645, 734, and 815 nm. The change in absorbance at 734 nm was noted 6 min after addition of the chelator of interest at various concentrations, and the slope of the ΔA734 vs. ligand concentration line was calculated.
# The iron chelators were tested for their ability to quench the radical cation formed from 2,2′-azinobis(3-ethylbenzothiazoline-6-sulfonic acid) (ABTS) by a published method (Re, R., et al., Free Radical Biol. Med. 26:1231-1237 (1999). Briefly, a stock solution of ABTS radical cation was generated by mixing ABTS (10 mM, 2.10 mL) with K2S2O8 (8.17 mM, 0.90 mL) in H2O and allowing the solution to sit in the dark at room temperature for 18 hours. This stock solution of deep blue-green ABTS radical cation was diluted in sufficient sodium phosphate (10 mM, pH 7.4) to give an A734 of about 0.900. Test compounds were added to a final concentration ranging from 1.25 to 15 μM, and the decrease in A734 was read after 1, 2, 4 and 6 min. The reaction was largely complete by 1 min, but the data presented are based on a 6-min. reaction time.
# This radical cation decolorization assay utilizes the pre-formed radical monocation of 2,2′-azinobis(3-ethylbenzothiazoline-6-sulfonic acid) (ABTS) and has been used to evaluate the antioxidant capacity of a large number of compounds and mixtures. Briefly, the change in absorbance of the blue-green chromophore was recorded after the addition of the chelator of interest at each of the different concentrations, and the slope of the ΔA734 vs. ligand concentration line was calculated. The positive control for this reaction was Trolox, an analogue of vitamin E. The decrease in A734 as a function of ligand concentration is the comparitor among the five compounds evaluated. Trolox, L1, DFO, (S)-4′-(HO)-DADMDFT and BDU (Table 3). All four of the iron chelators performed better than Trolox; DFO≈BDU>(S)-4′-(HO)-DADMDFT>L1>Trolox. Thus, all of these ligands could be expected to serve as excellent radical scavengers.
# iron [4] = assay: Iron clearance in the iron-overloaded Cebus apella monkey; type: in vivo; settings: as sodium salt
# Protocol: The monkeys were iron overloaded with intravenous iron dextran to provide about 500 mg iron per kg body weight. The serum transferrin iron saturation rose to between 70 and 80%. At least twenty half-lives, sixty days, elapsed before any of the animals were used in experiments evaluating iron-chelating agents.
# Fecal and urine samples were collected at 24 hour intervals and processed. Briefly, the collections began 4 days prior to the administration of the test drug and continued for an additional 5 days after the drug was given. Iron concentrations were determined by flame atomic absorption spectroscopy.
# as §2, §3
# [5] = Table 1, A734, six-minute reaction, pH 7.4, 1.25 to 15 μM
compound,measurement,setting,value
"O=C(O)[C@H]1CSC(c2cc(CCCOCCCOCCCc3cc(C4=N[C@@H](C(=O)O)CS4)c(O)cc3O)c(O)cc2O)=N1 [BDU, (S,S)-1,11-Bis[5-(4-carboxyl-4,5-dihydro-1,3-thiazol-2-yl)-2,4-dihydroxyphenyl]-4,8-dioxaundecane]",effect on ascorbate-mediated reduction of Fe(III) (in words),[1],significant protection
same,"% bile (of iron excreted), rodents",iron [2]; 150 μmol/kg po,80%
same,"% urine (of iron excreted), rodents",iron [2]; 150 μmol/kg po,20%
same,efficiency in rodents (%),iron [2]; 150 μmol/kg po,0.9±0.4%
same,"% bile (of iron excreted), rodents",iron [2]; 150 μmol/kg sc,95%
same,"% urine (of iron excreted), rodents",iron [2]; 150 μmol/kg sc,5%
same,efficiency in rodents (%),iron [2]; 150 μmol/kg sc,6.5±2.0%
same,Slope × 10^3 OD units/μM (ABTS radical cation quenching),"[3]; Table 3, A734, 6-min reaction, values marked b are the inventors' unpublished results",−136 × 10^3 OD units/μM
same,"% stool (of iron excreted), monkeys",iron [4]; 75 μmol/kg sc,98%
same,"% urine (of iron excreted), monkeys",iron [4]; 75 μmol/kg sc,2%
same,efficiency in monkeys (%),iron [4]; 75 μmol/kg sc,3.2±1.8% and 3.2 ± 1.8^g %
same,"% urine (of iron excreted), monkeys","iron [4]; 150 μmol/kg sc, n = 3",0%
same,efficiency in monkeys (%),"iron [4]; 150 μmol/kg sc, n = 3","2.1±1.4% and 2.1 ± 1.4^g,h %"
"Nc1ccc(O)c(C(=O)O)c1 [Compound 5-ASA, 5-aminosalicylic acid]",effect on ascorbate-mediated reduction of Fe(III) (in words),[1],promoted ascorbate-mediated reduction of Fe(III)
same,effect on ascorbate-mediated reduction of Fe(III) (in words),[1]; listed as 5-aminosalicylic acid,increased the rate of iron(III) reduction
same,Slope × 10^3 OD units/μM (ABTS radical cation quenching),[3]; [5],−34.4 × 10^3 OD units/μM
C[C@]1(C(=O)O)CSC(c2ccccc2O)=N1 [DADFT],Slope × 10^3 OD units/μM (ABTS radical cation quenching),[3]; [5],−25.1 × 10^3 OD units/μM
"O=C(O)C1CSC(c2ccccc2O)=N1 (stereo not drawn) [DADMDFT, desazadesmethyldesferrithiocin]",Slope × 10^3 OD units/μM (ABTS radical cation quenching),[3]; [5],−28.1 × 10^3 OD units/μM
"O=C(O)CN(CC(=O)O)CC(=O)O [NTA, nitrilotriacetic acid]",effect on ascorbate-mediated reduction of Fe(III) (in words),[1],profoundly stimulatory effect; also recorded: promoted ascorbate-mediated reduction of Fe(III)
same,effect on ascorbate-mediated reduction of Fe(III) (in words),[1]; listed as nitrilotriacetic acid,increased the rate of iron(III) reduction
"COCCOCCOCCN(O)C(C)=O [decyl hydroxamate, N-hydroxy,N-(3,6,9-trioxadecyl)acetamide]",effect on ascorbate-mediated reduction of Fe(III) (in words),[1],increased the rate of iron(III) reduction
